Values of other authors in US20250032494A1, “A COMBINATION TREATMENT FOR CANCER” (My Personal Therapeutics LTD, priority 2021, published 2025).

What was measured:
[1] = patients; with and without co-administration of DMARDs
[2] = tested on: tumors with the BRAF V600 mutation; details: both in vitro and in vivo
[3] = patients; versus cytotoxic active controls dacarbazine or paclitaxel

Compound | improvement over placebo [1] | cell growth of tumors with the BRAF V600 mutation [2] | progression-free survival [3]
CCOc1cc([C@@H](CS(C)(=O)=O)N2C(=O)c3cccc(NC(C)=O)c3C2=O)ccc1OC [Apremilast] | statistically significant improvement over placebo |  | 
CC(=O)Nc1cccc(-n2c(=O)n(C3CC3)c(=O)c3c(Nc4ccc(I)cc4F)n(C)c(=O)c(C)c32)c1 [Trametinib] |  | inhibits cell growth | statistically significant increase in progression-free survival
